Measurements reported in BindingDB's records for doi:10.1016/j.bmcl.2008.01.024 (Schering-Plough Research Institute, 2008).
pIC50: −log10 of the molar value.

Legend:
[1] = Inhibition of CXCR2-mediated chemotaxis in Ba/F3 cells expressing human CXCR2
[2] = Inhibition of CXCR1-mediated chemotaxis in Ba/F3 cells expressing human CXCR1

Row | pIC50 [1] | pIC50 [2] | SMILES
1 | 7.91 |  | CC[C@@H](Nc1c(Nc2cccc(C(=O)N(C)C)c2O)c(=O)c1=O)c1cc(C)on1 [(R)-2-hydroxy-N,N-dimethyl-3-(2-(1-(5-methylisoxazol-3-yl)propylamino)-3,4-dioxocyclobut-1-enylamino)benzamide]
2 | 8.70 | 6.04 | CC[C@@H](Nc1c(Nc2cccc(C(=O)N(C)C)c2O)c(=O)c1=O)c1cc(Br)co1 [(R)-3-(2-(1-(4-bromofuran-2-yl)propylamino)-3,4-dioxocyclobut-1-enylamino)-2-hydroxy-N,N-dimethylbenzamide]
3 | 8.35 |  | CC[C@@H](Nc1c(Nc2cccc(C(=O)N(C)C)c2O)c(=O)c1=O)c1ccccn1 [(R)-3-(3,4-dioxo-2-(1-(pyridin-2-yl)propylamino)cyclobut-1-enylamino)-2-hydroxy-N,N-dimethylbenzamide]
